Consider nine molecules from article PMC6513986, “Molecular basis for heat desensitization of TRPV1 ion channels” (Nature Communications, 2019).

Ends that are not written are not given here.

In one experiment the target is T1, mV1 (Mus musculus, UniProt Q704Y3).
T1 construct: expressed in transfected cells; host or cells: HEK293T
As to the kind of experiment: Inhibition of Dh of mV1 by C-terminal peptides or co-expressed C terminus, whole-cell. It counts as cell-based. On the set-up: Tau values: unit not given here. Particulars: for Id/Imax / Tau values: Supplementary figure 1e. From the text:
To generate the mC plasmid, the pEGFP-N1 vector enzyme cutting sites by HindIII and EcoRI were made by QuickCut Hind III and QuickCut EcoR I. The primer pair (5′- […]-3′ and 5′- […]-3′) for mouse TRPV1 was generated. pEGFP-N1 enzyme digestion vector and mouse TRPV1 PCR fragment were used for homologous recombination.
The pC plasmid was generated by the primer pair (5′-[…]-3′ and 5′-[…]-3′) and the homologous recombination between the pEGFP-N1 enzyme digestion vector and platypus TRPV1 PCR fragment were used.
The C-terminal peptides were synthesized[26] as the following sequences:
Random peptide: […]
(§1) All recordings were performed at room temperature.
(§2) Temperature control was achieved by perfusion of preheated or precooled solutions. Solutions were heated with an SHM-828 eight-line heater controlled by a CL-100 temperature controller (Harvard Apparatus). A custom-made manifold was attached to the output ports of the heater to deliver solutions to the recording chamber and provide heat insulation. Solutions were cooled by embedding the solution reservoirs in ice water and then perfused through a separate line. The patch pipette was placed about 1 mm from the solution output ports. A TA-29 miniature bead thermistor (Harvard Apparatus) was placed right next to the pipette, to ensure accurate monitoring of local temperature. The thermistor’s temperature readout was fed into an analog input of the patch amplifier and recorded simultaneously with current. With this method, we achieved rapid and reliable temperature changes.

Experiment [1] deals with T2, N-terminal region of mV1 (mN region, 1M-433R) (Mus musculus, UniProt Q704Y3).
T2 construct: N-terminal region of mV1 (mN region, 1M-433R)
As to the kind of experiment: SPR, N-terminal region of mV1 immobilized. It counts as binding. Particulars: 47.6 to 95.2 μM, 15 °C. How it is done: Note that the desensitization of mV1 occurs before cooling starts. Amplitude ratio (n = 7, two-sided t-test: *p < 0.01) between desensitized currents (Id) and maximum currents (Imax) induced by heat at 45 °C (right panel). c Superimposed representative temperature–response relationships of heat-evoked currents in HEK293T cells transiently transfected with pV1 and mV1. d Chimeric channels were generated between mV1 (gray) and pV1 (yellow) on the basis of the location of transmembrane domains. […] Channel plasmid was co-expressed with C-terminal region of pV1 (pC, 701N-851E) or mV1 (mC, 688N-839K). g Example current induced by a temperature ramp recorded from whole-cell patches with 1 mM mV1 C-terminal peptide (mC peptide) or random peptide in the pipette solution. h The mC peptide was perfused over an SPR sensor coated with the N-terminal region of mV1 (mN region, 1M-433R) at 15 or 35 °C (left and middle panels). The mC peptide in 95.2 μM was perfused over an SPR sensor coated with mN region at 15, 30, 33, and 35 °C (right panel). i Significant concentration and temperaturedependence of the interaction between N and C termini (n = 6, two-sided t-test: *p < 0.01). All statistical data are given as mean ± SEM. Source data are provided as a Source data file […]

The test system of the next experiment is TRPV1. The note with it: cited from earlier work. The source says:
To further corroborate our findings in FRET experiments of heat-desensitized channels, we took an alternative experimental strategy where we measured the changes in FRET induced by centipede toxin RhTx. […] Thus, we believe that the prolonged application of RhTx mimicked the effect ... || Based on the site-specific structural dynamics information, we computationally modeled the three-dimensional structure of mV1 in the Dh state. The blue shift in ANAP emission indicated a transition into a more hydrophobic environment at the 630 site, which provided an experimentally derived constraint for structural modeling using a recently published approach. As the heat-activated state of TRPV1 channels has not been resolved, we employed the double-knot toxin-bound state determined by cryo-EM (PDB ID: 3J5Q)[20] as the open state model, because a previous study had shown that Redhead tox ... || To model the heat-induced desensitized state of TRPV1, membrane-symmetry-loop modeling was performed using the Rosetta molecular modeling suite[41] version 2015.25. […] The selectivity filter, the pre S6 linker, and the S1–S2 linker were modeled de novo with the kinematic (KIC) loop modeling protocol[42],[43]. Ten th ... || (+ 1 further places)

For another experiment, the system named is mV1, pV1 and mutants. As to the kind of experiment: Heat-induced desensitization (Dh): Id/Imax and tau, patch clamp. It is filed as cell-based, mouse; platypus. Particulars: Figure 2g. On the procedure:
as §1, §2

Experiment [2] deals with T3, N-terminal region of mV1 (mN region, 1M-433R) (mouse, UniProt Q704Y3 1-433).
T3 construct: mouse TRPV1 (mV1), N-terminal region, residues 1M-433R; In the functional rows the N terminus stood within the whole mV1 channel in HEK293T cells; also called N-terminal peptides; N terminus of mV1
Briefly: SPR; mN region (1M-433R) immobilised on the sensor chip, mC peptide (30 aa) perfused at 47.6 and 95.2 uM; 15 °C ('low temperature'). Particulars: both partners purified.

The target in experiment [3] is T3, N-terminal region of mV1 (mN region, …). Briefly: SPR; mN region (1M-433R) immobilised on the sensor chip, mC peptide (30 aa) perfused at 47.6 and 95.2 uM; 35 °C ('high temperature'). The note with it: both partners purified.
The mark [4] stands for this setting: Id/Imax_Average of 6 replicates, SD and SEM in columns of their own.
The mark [5] stands for this setting: Tau values_Average of 6 replicates, SD and SEM in columns of their own.

As to “QVEEPTYHKLPKLSGVEADEMSDKFKEGPM [Random peptide]”, the “inhibition of Dh of mV1” value on mV1 (1 mM peptide in pipette solution, whole-cell) was “failed to inhibit Dh”.

Take “PEEVQLKHYTGSLKPEDAEVFKDSMAPGEK [mC peptide]”: in experiment [1], the “increase in SPR response” value is recorded as 162%.

With “LKHYTGSLKPEDAEVFKDSMAPGEK [Pep_25, C-terminal peptide]”, the Id/Imax is on record as 0.403 at mV1 (setting [4]); 0.318 at mV1 (replicate 1); 0.509 on mV1 (replicate 2); 0.427 at mV1 (replicate 3); 0.384 at mV1 (replicate 4); 0.367 at mV1 (replicate 5). Moreover, on mV1 (replicate 6), the Id/Imax worked out at 0.413. In addition, the Tau values on mV1 (setting [5]) amounted to 59.5; on mV1 (replicate 1), 43.8; on mV1 (replicate 2) it was 73; on mV1 (replicate 3) it was 60.4; on mV1 (replicate 4), 48.3; on mV1 (replicate 5), 52. In addition, the Tau values on mV1 (replicate 6) is on record as 79.5.

“GSLKPEDAEVFKDSMAPGEK [Pep_20, C-terminal peptide]”: the Id/Imax at mV1 (setting [4]) is reported as 0.596; on mV1 (replicate 1) it was 0.486; at mV1 (replicate 2), 0.667; at mV1 (replicate 3) it was 0.715; at mV1 (replicate 4), 0.612; at mV1 (replicate 5) it was 0.567. For the same molecule, at mV1 (replicate 6), the Id/Imax is given as 0.529. The Tau values at mV1 (setting [5]) is listed as 29.8; on mV1 (replicate 1) it was 23.5; at mV1 (replicate 2) it was 38.3; on mV1 (replicate 3), 20.7; on mV1 (replicate 4), 24.4; at mV1 (replicate 5) it was 39.6. For the same molecule, the Tau values at mV1 (replicate 6) amounted to 32.3.

As to `C=C(C)[C@]12C[C@@H](C)[C@@]34O[C@](Cc5ccccc5)(O[C@@H]1[C@@H]3C=C(COC(=O)Cc1ccc(O)c(OC)c1)C[C@]1(O)C(=O)C(C)=C[C@@H]41)O2` [RTX], in the experiment with TRPV1, the “activation through heat activation pathway” value is “activated the channel through heat activation pathway”.

B1: DkTx: peptide toxin, double-knot toxin (peptide, UniProt P0CH43 1-79, looked up)
Tau-theraphotoxin-Hs1a: DCAKEGEVCSWGKKCCDLDNFYCPMEFIPHCKKYKPYVPVTTNCAKEGEVCGWGSKCCHGLDCPLAFIPYCEKYRGRND
Turning to B1, in the experiment on TRPV1, the “activation through heat activation pathway” value is “activated the channel through heat activation pathway” and the “mimicry of heat activation” value is recorded as “mimic heat activation of TRPV1”.

B2: mV1 (protein, UniProt Q704Y3 1-839, looked up)
Transient receptor potential …: MEKWASLDSDESEPPAQENSCPDPPDRDPNSKPPPAKPHIFATRSRTRLFGKGDSEEASPMDCPYEEGGLASCPIITVSSVVTLQRSVDGPTCLRQTSQDSVSTGVETPPRLYDRRSIFDAVAQSNCQELESLLSFLQKSKKRLTDSEFKDPETGKTCLLKAMLNLHNGQNDTIALLLDIARKTDSLKQFVNASYTDSYYKGQTALHIAIERRNMALVTLLVENGADVQAAANGDFFKKTKGRPGFYFGELPLSLAACTNQLAIVKFLLQNSWQPADISARDSVGNTVLHALVEVADNTADNTKFVTNMYNEILILGAKLHPTLKLEELTNKKGLTPLALAASSGKIGVLAYILQREIHEPECRHLSRKFTEWAYGPVHSSLYDLSCIDTCEKNSVLEVIAYSSSETPNRHDMLLVEPLNRLLQDKWDRFVKRIFYFNFFVYCLYMIIFTTAAYYRPVEGLPPYKLNNTVGDYFRVTGEILSVSGGVYFFFRGIQYFLQRRPSLKSLFVDSYSEILFFVQSLFMLVSVVLYFSHRKEYVASMVFSLAMGWTNMLYYTRGFQQMGIYAVMIEKMILRDLCRFMFVYLVFLFGFSTAVVTLIEDGKNNSLPVESPPHKCRGSACRPGNSYNSLYSTCLELFKFTIGMGDLEFTENYDFKAVFIILLLAYVILTYILLLNMLIALMGETVNKIAQESKNIWKLQRAITILDTEKSFLKCMRKAFRSGKLLQVGFTPDGKDDFRWCFRVDEVNWTTWNTNVGIINEDPGNCEGVKRTLSFSLRSGRVSGRNWKNFALVPLLRDASTRDRHSTQPEEVQLKHYTGSLKPEDAEVFKDSMAPGEK
For B2, in the experiment on mV1, pV1 and mutants (mean of replicates), the Id/Imax_Average amounted to 0.993. For the same molecule, the Id/Imax in the experiment with mV1, pV1 and mutants (replicate 1) worked out at 0.9971; in the experiment with mV1, pV1 and mutants (replicate 2) it was 0.9951; in the experiment with mV1, pV1 and mutants (replicate 3) it was 0.999; in the experiment with mV1, pV1 and mutants (replicate 4), 0.9588; with mV1, pV1 and mutants (replicate 5) it was 0.9972; with mV1, pV1 and mutants (replicate 6) it was 0.9943. Also, the Id/Imax in the experiment with mV1, pV1 and mutants (replicate 7) is 0.9968; in the experiment on mV1, pV1 and mutants (replicate 8) it was 0.9956; with mV1, pV1 and mutants (replicate 9) it was 0.9982; in the experiment on mV1, pV1 and mutants (replicate 10), 0.9979.

B3: mV1 C-terminal peptide (Pep_30) (peptide)
peptide: PEEVQLKHYTGSLKPEDAEVFKDSMAPGEK
notes: last 30 residues of mouse TRPV1 (mV1); The text ties the SPR and the pipette experiment to 'a 30-amino-acid' C-terminal peptide; Pep_30 is the only printed peptide of that length from mV1; also called mC peptide; C-terminal peptides (a 30-amino-acid molecule); source: synthetic peptide
For the molecule B3, the Kd was found to be 140 nM in experiment [2] and 3 nM in experiment [3].

B4: C terminus of mV1: C-terminal region of mV1 (mC, 688N-839K), co-expressed plasmid (protein)
chain: NKIAQESKNIWKLQRAITILDTEKSFLKCMRKAFRSGKLLQVGFTPDGKDDFRWCFRVDEVNWTTWNTNVGIINEDPGNCEGVKRTLSFSLRSGRVSGRNWKNFALVPLLRDASTRDRHSTQPEEVQLKHYTGSLKPEDAEVFKDSMAPGEK
modifications: left off: eGFP (from the vector pEGFP-N1), end not stated, state not stated
notes: C-terminal region of mV1 (mC, 688N-839K), co-expressed plasmid
As for B4, in the experiment with mV1 (co-expression with C-terminal region), the “inhibition of Dh of mV1” value is “largely inhibited”.
